Experiments:
red blood cells [1] = test: Thaw hemolysis of red blood cells frozen at −80° C. with reduced glycerol (Example 1); type: cell-based, human; settings: frozen at −80° C. 2-7 days, thawed 37° C. water bath 10 minutes; ratio of free to total hemoglobin
Experimental: A significant percentage of the hemolytic damage is shown to be reversed by the addition of a preservative solution containing adenine, glutamine, sodium chloride, mannitol, and dextrose, with the essential additive being dextrose, and final concentrations of 5 mM pentoxifylline and 25 μg/ml flurbiprofen in DMSO as a carrier.
Specifically, 50 ml of packed red blood cells was added to a PVC freezing bag with a maximum volume of 150 ml. Isotonic saline or preservative solution containing the additional biochemical reagents pentoxifylline and flurbiprofen was mixed with the red blood cells. A volume of Glycerolyte 57 (Fenwall) was added slowly until the final concentration of glycerol was achieved. The total volume of all additions was 50 ml, making the final […] of the red blood cell unit 100 ml. […] The levels of thaw hemolysis are shown below in TABLE 1.

red blood cells [2] = test: Thaw and overall hemolysis, glycerol-based cryoprotectant with biochemical stabilization (Example 4); type: cell-based, human; settings: for % Hemolysis Thaw: frozen −80° C., thawed 37° C. water bath 10 minutes; for % Hemolysis Overall: overall hemolysis following the wash with 12%, 1.6% and 0.9% saline
Experimental: An aliquot of blood was transferred to a PVC storage bag, to which any experimental agents were added. Glycerol was then added until the desired final glycerol was achieved. This unit was frozen at −80° C., stored and thawed in a 37° C. water bath for 10 minutes. […] The values indicate the percent hemolysis in the thawed sample, the overall amount of hemolysis following the wash and the is percent of residual free hemoglobin in the final sample. Hemolysis is calculated as the ratio of free hemoglobin to the total hemoglobin content in the sample.

red blood cells [3] = test: Thaw, overall and final hemolysis, glycerol based cryoprotectant with additives (Example 2); type: cell-based, human; settings: additives in 20% glycerol; for Hemolysis (%) Overall: after glycerol removal by serial dilution with saline; for Hemolysis (%) Final (residual free hemoglobin): final residual free hemoglobin after wash; for Hemolysis (%) Thaw: frozen −80° C. 2-7 days, thawed 37° C. 10 minutes
Experimental: Fifty ml of packed red blood cells were added to a PVC freezing bag. Isotonic saline or preservative solution containing the additional biochemical reagents of interest was mixed with the red blood cells. The samples were treated as follows prior to freezing at −80° C.: • 1. 40% Glycerol • 2. 20% Glycerol • 3. Nicotinamide • 4.
A volume of Glycerolyte 57 (Fenwall) was added slowly until the final concentration of glycerol was achieved. The total volume of all additions was 50 ml, making the final volume of the red blood cell unit 100 ml. The PVC bags were frozen at −80° C. for 2-7 days and thawed by submersion in a 37° C. water bath for 10 minutes. The level of thaw hemolysis was determined as the ratio of free hemoglobin to total hemoglobin. Additionally, the glycerol was removed from the thawed red blood cell units by serial dilution with saline similar to blood bank protocols. The overall hemolysis and the final residual free hemoglobin levels were also determined.

red blood cells [4] = test system: red blood cells
Text: Additionally, the glycerol was removed from the thawed red blood cell units by serial dilution with saline similar to blood bank protocols.

red blood cells [5] = settings: frozen storage at −80° C., glycerol washed out prior to transfusion; typical level; cited from earlier work
red blood cells [6] = test: Thaw and overall hemolysis, 10% glycerol reduced cryopreservation model (Example 3); type: cell-based, human; settings: 10% (w/v) glycerol base
Experimental: The model used is a reduced glycerol cryopreservation system. 10% (w/v) glycerol is added to the unit prior to freezing at −80° C.
A single unit of packed red blood cells in ADSOL was obtained using standard blood banking protocols. […] From this red blood cell unit 50 ml of red cells was placed into each of 3 PVC freezing bags having a maximum volume of 150 ml. An equal volume (50 ml) was added to each of the bags composed of the above preservation solution and the experimental conditions. The final composition of the first bag was 10% (w/v) glycerol. […] The overall hemolysis was also determined.

[7] = listed as 20% Glycerol with Control

Row | SMILES | % Hemolysis (level of thaw hemolysis) (red blood cells [1]) [%] | Hemolysis (%) Overall (red blood cells [3]) [%] | Hemolysis (%) Final (residual free hemoglobin) (red blood cells [3]) [%] | Hemolysis (%) Thaw (red blood cells [3]) [%] | other results
1 | OCC(O)CO [30% Glycerol, glycerol] | 3.53 | – | – | – | –
2 | OCC(O)CO [20% Glycerol, glycerol] | 35.29 | 41.48 | 1.09 | 9.39 | % Hemolysis Thaw (red blood cells [2]; [7]): 37.9%; % Hemolysis Overall (red blood cells [2]; [7]): 52.0%
3 | C[S+](C)[O-] [DMSO, dimethyl sulfoxide] | – | – | – | – | % Hemolysis (red blood cells [4]): 23.17 ± 0.58%
4 | NC(=O)c1cccnc1 [Nicotinamide] | – | 22.93 | 0.43 | 8.13 | –
5 | OCC(O)CO [40% Glycerol, glycerol] | 1.91 | 14.1 | 0.45 | 2.01 | % Hemolysis Thaw (red blood cells [2]): 1.9%; % Hemolysis Overall (red blood cells [2]): 6.1%; hemolysis during the wash procedure (red blood cells [5]): 10-15%
6 | OCC(O)CO [10% Glycerol, glycerol] | – | – | – | – | % Hemolysis Overall (red blood cells [6]; after glycerol removal by serial dilution with saline): 93.62 ± 1.28%; % Hemolysis Thaw (red blood cells [6]; frozen −80° C. 2-7 days, thawed 37° C. 10 minutes): 61.71 ± 1.26%
